Test results from paper PMC9403976, “Elucidating the path to Plasmodium prolyl-tRNA synthetase inhibitors that overcome halofuginone resistance” (Nature Communications, 2022).
Values joined by “and” are separate entries in the source; they are usually repeats but may differ in a detail not shown here. Identical values can stand only once. Like-named read-outs stand apart in the source and are kept apart here. Marks after values point to notes of the source that are not given here.

Legend:
[1] = tested on: P. falciparum Dd2-2D4; assay: P. falciparum asexual blood stage (ABS) growth assay, SYBR Green, 72 h, wild-type parasites; format: cell-based, Plasmodium falciparum
[2] = tested on: halofuginone-induced P. falciparum (elevated proline homeostasis); assay: P. falciparum ABS growth assay, SYBR Green, 72 h, halofuginone-induced parasites; format: cell-based, Plasmodium falciparum; settings: for parasite growth, dose-response point: Halofuginone-Induced (HFG-Induced)
Procedure, shortened: (§1)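 Dd2-derived erythrocytic-stage parasites at 1% parasitemia and 1% hematocrit in RPMI + 0.5% Albumax were exposed to compounds in triplicate dose-response. Controls were 10 μM dihydroartemisinin (kill) and no-compound wells (growth). Growth was read by SYBR Green 1 fluorescence after 72 h and used to derive EC50.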

[3] = tested on: HFGR-I P. falciparum (elevated proline homeostasis and PfcProRS^L482H); assay: P. falciparum ABS growth assay, SYBR Green, 72 h, HFGR-I parasites; format: cell-based, Plasmodium falciparum; settings: for parasite growth, dose-response point: HFGR-I
Procedure, shortened: as §1

[4] = biological target: T1, PfcProRS (Plasmodium falciparum, UniProt Q8I5R7); format: binding; settings: for Normalized response, dose-response replicates (SI Fig 14): replicates 1-3
T1 construct: made in house; host or cells: E. coli SoluBL-21

[5] = biological target: HsProRS (Homo sapiens, UniProt P07814); assay: TR-FRET ligand displacement assay with tracer MAT379 (CoraFluor-1-Halo and anti-His6 antibody formats); format: binding; parameters: made in house; host or cells: E. coli SoluBL-21; settings: for normalized TR-FRET signal (dose-response replicates): SI Fig 17a
[6] = 10 μM, compound had <50% inhibition
[7] = Log[inhibitor] (M) -5.000, series r4-r15

Chain of HsProRS (P07814 996-1512): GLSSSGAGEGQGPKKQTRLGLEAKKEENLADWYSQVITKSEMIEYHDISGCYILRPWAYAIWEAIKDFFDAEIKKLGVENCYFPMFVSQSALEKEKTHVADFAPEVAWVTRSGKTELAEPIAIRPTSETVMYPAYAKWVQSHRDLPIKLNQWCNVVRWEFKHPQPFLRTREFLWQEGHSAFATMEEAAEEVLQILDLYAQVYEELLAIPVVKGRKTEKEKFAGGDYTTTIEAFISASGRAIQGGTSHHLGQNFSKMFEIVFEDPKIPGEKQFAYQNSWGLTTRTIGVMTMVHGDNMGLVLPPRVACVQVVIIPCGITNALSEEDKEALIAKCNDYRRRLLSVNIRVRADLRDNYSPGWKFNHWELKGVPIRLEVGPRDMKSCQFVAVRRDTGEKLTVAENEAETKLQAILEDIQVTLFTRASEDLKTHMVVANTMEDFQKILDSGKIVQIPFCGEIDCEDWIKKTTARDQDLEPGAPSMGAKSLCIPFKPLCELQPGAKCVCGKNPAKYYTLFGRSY
T1 sequence (Q8I5R7 249-746): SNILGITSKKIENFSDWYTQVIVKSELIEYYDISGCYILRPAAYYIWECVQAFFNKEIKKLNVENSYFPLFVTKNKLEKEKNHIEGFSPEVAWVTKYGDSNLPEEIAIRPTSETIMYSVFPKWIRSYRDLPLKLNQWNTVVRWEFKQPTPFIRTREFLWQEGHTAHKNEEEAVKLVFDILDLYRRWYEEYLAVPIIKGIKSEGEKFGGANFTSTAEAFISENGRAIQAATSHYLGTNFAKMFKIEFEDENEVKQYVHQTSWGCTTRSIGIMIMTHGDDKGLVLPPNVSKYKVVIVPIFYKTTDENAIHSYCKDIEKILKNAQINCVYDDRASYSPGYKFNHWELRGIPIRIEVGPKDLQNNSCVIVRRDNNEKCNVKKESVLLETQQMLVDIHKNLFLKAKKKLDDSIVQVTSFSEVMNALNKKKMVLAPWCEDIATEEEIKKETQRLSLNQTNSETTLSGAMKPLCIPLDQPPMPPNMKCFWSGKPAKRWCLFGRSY

## CC(C)(C)OC(=O)N1CCC[C@H]1C(=O)NC1CCN(C(=O)Nc2nccnc2C(=O)NC2Cc3ccccc3C2)CC1 [compound 31]
[1]; [6]
  percent growth at 10 μM, Dd2 wt: 102%^b
[1]; Plasmodium falciparum, wildtype (Dd2-2D4), bound given in μM, read-out: Dd2 EC50 wildtype (Dd2-2D4), bound
  EC50: > 10 µM
[1]; wildtype (Dd2-2D4), 10 μM
  % signal at 10 μM, wildtype (Dd2-2D4): 102%
[2]; [6]
  percent growth at 10 μM, Dd2 Halofuginone-induced: 98%^b
[2]; [7]
  parasite growth, dose-response point: 103 and 98 and 92
[2]; Log[inhibitor] (M) -5.301
  parasite growth, dose-response point: 107 and 109 and 115
[2]; Log[inhibitor] (M) -5.602
  parasite growth, dose-response point: 124 and 110 and 116
[2]; Log[inhibitor] (M) -5.903
  parasite growth, dose-response point: 117 and 106 and 104
[2]; Log[inhibitor] (M) -6.204
  parasite growth, dose-response point: 111 and 107 and 99
[2]; Log[inhibitor] (M) -6.505
  parasite growth, dose-response point: 98 (2×) and 104
[2]; Log[inhibitor] (M) -6.806
  parasite growth, dose-response point: 109 and 112 and 103
[2]; Log[inhibitor] (M) -7.107
  parasite growth, dose-response point: 105 and 103 and 108
[2]; Log[inhibitor] (M) -7.408
  parasite growth, dose-response point: 116 and 109 and 103
[2]; Log[inhibitor] (M) -7.709
  parasite growth, dose-response point: 115 and 100 and 119
[2]; Log[inhibitor] (M) -8.010
  parasite growth, dose-response point: 104 and 100 and 101
[2]; Log[inhibitor] (M) -8.311
  parasite growth, dose-response point: 107 and 102 and 101
[2]; Plasmodium falciparum, DD2, halofuginone-induced, bound given in μM, read-out: Dd2 EC50 halofuginone-induced, bound
  EC50: > 10 µM
[2]; halofuginone-induced, 10 μM
  % signal at 10 μM, halofuginone-induced: 97.7%
[3]; [6]
  percent growth at 10 μM, Dd2 HFGR-I: 103%^b
[3]; HFGR1, 10 μM
  % signal at 10 μM, HFGR1: 103%
[3]; [7]
  parasite growth, dose-response point: 106 and 104 and 99
[3]; Log[inhibitor] (M) -5.301
  parasite growth, dose-response point: 101 and 100
[3]; Log[inhibitor] (M) -5.602
  parasite growth, dose-response point: 105 and 102 and 104
[3]; Log[inhibitor] (M) -5.903
  parasite growth, dose-response point: 95 and 102 and 101
[3]; Log[inhibitor] (M) -6.204
  parasite growth, dose-response point: 104 and 99 and 98
[3]; Log[inhibitor] (M) -6.505
  parasite growth, dose-response point: 99 and 95 and 97
[3]; Log[inhibitor] (M) -6.806
  parasite growth, dose-response point: 108 and 106 and 107
[3]; Log[inhibitor] (M) -7.107
  parasite growth, dose-response point: 106 and 105
[3]; Log[inhibitor] (M) -7.408
  parasite growth, dose-response point: 109 and 104 and 106
[3]; Log[inhibitor] (M) -7.709
  parasite growth, dose-response point: 108 and 106
[3]; Log[inhibitor] (M) -8.010
  parasite growth, dose-response point: 103 and 105
[3]; Log[inhibitor] (M) -8.311
  parasite growth, dose-response point: 108 and 105 and 104
[3]; Plasmodium falciparum, DD2, HFGR1, bound given in μM, read-out: Dd2 EC50 HFGR1, bound
  EC50: > 10 µM
[4]; Log[inhibitor] (M) -5.000
  Normalized response, dose-response replicates (SI Fig 14): 5.64E-01 and 5.99E-01 and 6.18E-01
[4]; Log[inhibitor] (M) -5.301
  Normalized response, dose-response replicates (SI Fig 14): 6.96E-01 and 6.54E-01 and 6.55E-01
[4]; Log[inhibitor] (M) -5.601
  Normalized response, dose-response replicates (SI Fig 14): 8.77E-01 and 8.39E-01 and 9.75E-01
[4]; Log[inhibitor] (M) -5.904
  Normalized response, dose-response replicates (SI Fig 14): 9.20E-01 and 8.45E-01 and 8.88E-01
[4]; Log[inhibitor] (M) -6.208
  Normalized response, dose-response replicates (SI Fig 14): 9.89E-01 and 9.27E-01 and 1.07E+00
[4]; Log[inhibitor] (M) -6.509
  Normalized response, dose-response replicates (SI Fig 14): 1.00E+00 and 9.45E-01 and 8.96E-01
[4]; Log[inhibitor] (M) -6.796
  Normalized response, dose-response replicates (SI Fig 14): 8.17E-01 and 9.17E-01 and 9.69E-01
[4]; Log[inhibitor] (M) -7.108
  Normalized response, dose-response replicates (SI Fig 14): 9.90E-01 and 9.44E-01 and 8.89E-01
[4]; Log[inhibitor] (M) -7.409
  Normalized response, dose-response replicates (SI Fig 14): 9.05E-01 and 8.67E-01 and 8.30E-01
[4]; Log[inhibitor] (M) -7.710
  Normalized response, dose-response replicates (SI Fig 14): 9.25E-01 and 1.08E+00 and 9.24E-01
[4]; Log[inhibitor] (M) -8.000
  Normalized response, dose-response replicates (SI Fig 14): 8.19E-01 and 1.06E+00 and 9.65E-01
[4]; Log[inhibitor] (M) -8.301
  Normalized response, dose-response replicates (SI Fig 14): 1.15E+00 and 1.07E+00 (2×)
[4]; Log[inhibitor] (M) -8.602
  Normalized response, dose-response replicates (SI Fig 14): 1.06E+00 and 1.03E+00 and 1.05E+00
[4]; Log[inhibitor] (M) -9.000
  Normalized response, dose-response replicates (SI Fig 14): 8.95E-01 and 9.81E-01 and 1.04E+00
[4]; Log[inhibitor] (M) -9.301
  Normalized response, dose-response replicates (SI Fig 14): 1.02E+00 and 9.15E-01 and 1.14E+00
[4]; SI Fig 16a, values on -log scale
  PfcProRS -- best Kd: 5.701
[5]; + 100 μM proline, 10 μM
  HsProRS % signal at 10 μM, + 100 μM proline: 59.4%
[5]; HsProRS (KD [nM]) −, absence of substrates, 250 nM MAT379
  Kd: 5130 nM
[5]; HsProRS KD + 100 μM proline, bound, + 100 μM proline, bound given in μM
  Kd: > 5090 nM
[5]; Log[inhibitor] (M) -5.000, series of 31
  normalised signal, dose-response point (Fig 4d): 4.79E-01 and 4.46E-01
[5]; Log[inhibitor] (M) -5.286
  normalised signal, dose-response point (Fig 4d): 6.67E-01 and 6.31E-01
[5]; Log[inhibitor] (M) -5.574
  normalised signal, dose-response point (Fig 4d): 7.84E-01 and 7.77E-01
[5]; Log[inhibitor] (M) -5.862
  normalised signal, dose-response point (Fig 4d): 8.87E-01 and 8.96E-01
[5]; Log[inhibitor] (M) -6.151
  normalised signal, dose-response point (Fig 4d): 9.64E-01 and 9.65E-01
[5]; Log[inhibitor] (M) -6.428
  normalised signal, dose-response point (Fig 4d): 9.34E-01 and 9.44E-01
[5]; Log[inhibitor] (M) -6.729
  normalised signal, dose-response point (Fig 4d): 9.61E-01 and 9.47E-01
[5]; Log[inhibitor] (M) -7.006
  normalised signal, dose-response point (Fig 4d): 9.42E-01 and 8.63E-01
[5]; Log[inhibitor] (M) -7.295
  normalised signal, dose-response point (Fig 4d): 9.55E-01 and 9.92E-01
[5]; Log[inhibitor] (M) -7.585
  normalised signal, dose-response point (Fig 4d): 1.05E+00 and 9.07E-01
[5]; Log[inhibitor] (M) -7.875
  normalised signal, dose-response point (Fig 4d): 9.50E-01 and 9.36E-01
[5]; Log[inhibitor] (M) -8.135
  normalised signal, dose-response point (Fig 4d): 9.31E-01 and 9.40E-01
[5]; Log[inhibitor] (M) -8.477
  normalised signal, dose-response point (Fig 4d): 9.84E-01 and 9.46E-01
[5]; Log[inhibitor] (M) -8.699
  normalised signal, dose-response point (Fig 4d): 8.68E-01 and 9.88E-01
[5]; Log[inhibitor] (M) -9.176
  normalised signal, dose-response point (Fig 4d): 1.01E+00 and 1.00E+00
[5]; Log[inhibitor] (M) -9.363
  normalised signal, dose-response point (Fig 4d): 9.70E-01 and 9.49E-01
[5]; Log[inhibitor] (M) -5.000
  normalized TR-FRET signal (dose-response replicates): 3.75E-01 and 3.29E-01 and 2.94E-01
[5]; Log[inhibitor] (M) -5.301
  normalized TR-FRET signal (dose-response replicates): 5.13E-01 and 4.93E-01 and 4.68E-01
[5]; Log[inhibitor] (M) -5.601
  normalized TR-FRET signal (dose-response replicates): 7.38E-01 and 6.61E-01 and 6.36E-01
[5]; Log[inhibitor] (M) -5.904
  normalized TR-FRET signal (dose-response replicates): 7.87E-01 and 7.39E-01 and 7.57E-01
[5]; Log[inhibitor] (M) -6.208
  normalized TR-FRET signal (dose-response replicates): 8.48E-01 and 8.27E-01 and 8.24E-01
[5]; Log[inhibitor] (M) -6.509
  normalized TR-FRET signal (dose-response replicates): 8.55E-01 and 8.71E-01 and 8.75E-01
[5]; Log[inhibitor] (M) -6.796
  normalized TR-FRET signal (dose-response replicates): 8.61E-01 and 8.99E-01 and 9.13E-01
[5]; Log[inhibitor] (M) -7.108
  normalized TR-FRET signal (dose-response replicates): 8.48E-01 and 8.44E-01 and 8.72E-01
[5]; Log[inhibitor] (M) -7.409
  normalized TR-FRET signal (dose-response replicates): 9.07E-01 and 8.89E-01 and 8.65E-01
[5]; Log[inhibitor] (M) -7.710
  normalized TR-FRET signal (dose-response replicates): 8.96E-01 and 8.93E-01 and 8.29E-01
[5]; Log[inhibitor] (M) -8.000
  normalized TR-FRET signal (dose-response replicates): 9.41E-01 and 8.72E-01 and 9.37E-01
[5]; Log[inhibitor] (M) -8.301
  normalized TR-FRET signal (dose-response replicates): 8.90E-01 (2×) and 9.30E-01
[5]; Log[inhibitor] (M) -8.602
  normalized TR-FRET signal (dose-response replicates): 9.13E-01 and 9.30E-01 and 9.15E-01
[5]; Log[inhibitor] (M) -9.000
  normalized TR-FRET signal (dose-response replicates): 9.52E-01 and 8.88E-01 and 9.53E-01
[5]; Log[inhibitor] (M) -9.301
  normalized TR-FRET signal (dose-response replicates): 9.64E-01 and 9.01E-01 and 8.76E-01
